The record followed here is patent publication US11377473B2, “Albumin-binding prodrugs of auristatin E derivatives” (priority 2017, dated 2022).

Data set [1] deals with T1, albumin in rat plasma (Rattus norvegicus, UniProt P02770).
T1 construct: CD1 murine plasma and Sprague Dawley rat plasma were removed from −80° C. storage; from tissue; host or cells: Sprague Dawley rat plasma (frozen, thawed, filtered)
Put plainly: Binding kinetics to albumin in rat plasma. In kind it is in vitro ADME, Sprague Dawley rat. The following applies: 37° C. On the procedure:
(§1) CD1 murine plasma and Sprague Dawley rat plasma were removed from −80° C. storage and allowed to reach room temperature. The thawed plasma was spun down at 13.6 kRPM for 60 seconds, the supernatant was filtered through a filter needle (5 μm) and subsequently through a 0.45 μm CA membrane.
(§2) All binding experiments were carried out in triplicate. The plasma was incubated at 37° C. using an Eppendorf Thermomixer C. After 30 minutes incubation 40 μL of the appropriate albumin-binding auristatin-Sulf07 derivative was dissolved in its reconstitution solution and added to the plasma. Samples (40 μL) were taken after 15 seconds, 2 minutes, 4 minutes, 8 minutes and 15 minutes (5 samples).
(§3) The samples were immediately added to 160 μL of acetonitrile (containing 4 μg/mL of 'MMAE as an internal standard) and vortexed for 1 minute.
(§4) The solutions were pipetted into an Impact plasma precipitation plate (shaken for 60 seconds) and filtered by vacuum onto a 96 well plate. Remaining drug was determined by LCMS quantification (method 5, 30 μL injection) using MRM MS2 negative mode (multiple reaction monitoring). Parent ions: auristatin F (Mass-744.8), AE-Keto-Sulf07 (Mass-1135.1) and AE-Ester-Sulf07 (Mass-1283.2). Percentage of binding was determined by comparing the AUC for AE-Keto-Sulf07 and AE-Ester-Sulf07 to calibration curves generated by LCMS for each compound.

Data set [2] concerns the target T2, albumin in human plasma (Homo sapiens, UniProt P02768).
T2 construct: the plasma was separated from the red blood cells by spinning it down for 3 minutes at 3000 RPM; from tissue; host or cells: fresh plasma of a healthy human volunteer
Put plainly: Binding kinetics to albumin in human plasma. The data set is classed as in vitro ADME. The following applies: 37° C. As for the experimental part: Whole blood was taken from a healthy human volunteer (EDTA collection tube), the plasma was separated from the red blood cells by spinning it down for 3 minutes at 3000 RPM. The plasma was then used directly, within 2 hours of the blood donation. 360 μL of the appropriate plasma was used for each binding experiment.
as §2, §3, §4

A short description of data set [3]: Accelerated degradation of lyophilized auristatin formulations. In kind it is physicochemical. The following applies: 55° C. for up to 264 hours. On the procedure:
The APIs were dissolved in the lyophilization buffer which contained 2-HPβCD, 10 mM sodium citrate pH 6.2, 50% tert-butyl alcohol (V/V)). For the AE-Keto derivatives 2% (w/v) 2-HPβCD was employed to dissolve the AE-Keto APIs at 1.27 mM concentration; for the AE-Ester derivatives 4% (w/v) 2-HPβCD was used to dissolve the APIs at 1.05 mM concentration. The dissolved APIs were sterile filtered using an Acrodisc Fluorodyne II syringe filter (0.2 μm). The sterile solutions were pipetted into lyophilization vials which were then partially sealed using a rubber stopper. The vials were subsequently placed into the freeze dryer for lyophilization. The vials were frozen on the freeze dryer shelf at −40° C. for 2 hours, after 2 hours main drying was started. Main drying was run for 26 hours, parameters: shelf temperature −20° C., vacuum 0.0048 mbar. After main drying, final drying was initiated. Final drying was run for 16 hours, parameters: shelf temperature 20° C., vacuum 0.0047 mbar. […]
The sealed vials were incubated at 55° C. using an Eppendorf Thermomixer C with a plate insert (Smartblock) and lid. […] Stability of the APIs was determined by HPLC (method 8, 254 nm for AE-Keto derivatives, 310 nm for AE-Ester derivatives). The percentage of maleimide hydrolysis at each time point was determined by comparison to the AUC for each API at time 0.

The target of data set [4] is T3, albumin in murine plasma (Mus musculus, UniProt P07724).
T3 construct: CD1 murine plasma and Sprague Dawley rat plasma were removed from −80° C. storage; from tissue; host or cells: CD1 murine plasma (frozen, thawed, filtered)
T3 sequence (P07724 25-608): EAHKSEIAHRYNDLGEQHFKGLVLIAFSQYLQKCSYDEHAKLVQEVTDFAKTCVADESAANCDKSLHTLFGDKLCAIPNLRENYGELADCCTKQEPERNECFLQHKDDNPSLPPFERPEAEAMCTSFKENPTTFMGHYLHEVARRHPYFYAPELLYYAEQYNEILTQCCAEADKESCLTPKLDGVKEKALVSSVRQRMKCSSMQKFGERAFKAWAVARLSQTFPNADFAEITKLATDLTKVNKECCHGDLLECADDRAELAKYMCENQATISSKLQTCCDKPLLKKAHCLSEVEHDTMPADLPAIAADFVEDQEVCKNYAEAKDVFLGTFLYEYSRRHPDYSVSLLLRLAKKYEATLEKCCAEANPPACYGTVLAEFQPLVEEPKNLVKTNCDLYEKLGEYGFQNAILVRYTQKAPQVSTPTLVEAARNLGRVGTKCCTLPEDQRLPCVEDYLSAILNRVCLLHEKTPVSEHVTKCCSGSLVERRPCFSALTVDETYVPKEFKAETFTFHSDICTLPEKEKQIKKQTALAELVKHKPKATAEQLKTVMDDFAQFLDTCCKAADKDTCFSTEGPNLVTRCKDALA
Put plainly: Binding kinetics to albumin in murine plasma. The data set is classed as in vitro ADME, CD1 murine. The following applies: 37° C. On the procedure: as §1, §2, §3, §4

Data set [5] can be described thus: Reconstitution stability (maleimide hydrolysis, loss of API) in reconstitution buffer. In kind it is physicochemical. The following applies: for stability of the reconstituted drug (maleimide hydrolysis and loss of API): 50 mM sodium phosphate buffer pH 7.6, 5% sucrose, 2-HPβCD, room temperature, 240 minutes; for maleimide hydrolyzed: after 4 hours incubation at room temperature in reconstitution buffer (50 mM sodium phosphate pH 7.65 containing 4% HPβCD and 5% sucrose). As for the experimental part: The albumin-binding AE-Keto drug derivatives were reconstituted in 50 mM sodium phosphate buffer pH 7.6 which contained 5% sucrose (w/v) and 2% 2-hydroxypropyl-β-cyclodextrin (2-HPβCD). Both drugs were reconstituted at a concentration of 1277 μM (equal to 4.5 mg/kg murine xenograft dose), the dissolution of both drugs was confirmed by HPLC (method 2, 254 nm). Stability of the reconstituted drugs was monitored by HPLC at room temperature every 15 minutes over a period of 240 minutes for maleimide hydrolysis and loss of API.
The albumin-binding AE-Ester derivatives were reconstituted in 50 mM sodium phosphate buffer pH 7.6 which contained 5% sucrose (w/v) and 4% 2-HPβCD. Both drugs were reconstituted at a concentration of 655 μM (equal to 2.4 mg/kg murine xenograft dose), the dissolution of both drugs was confirmed by HPLC (method 2, 310 nm). Stability of the reconstituted drugs was monitored by HPLC at room temperature every 15 minutes over a period of 240 minutes for maleimide hydrolysis and loss of API.

The test system of data set [6] is NSCLC xenograft model LXFA737. Briefly: Human non-small cell lung cancer model LXFA737, large tumors. The data set is classed as in vivo, NMRI nude mice. An excerpt:
Mice were kept under a 14-hour light/10-hour dark, artificial light cycle. The animals were fed with autoclaved Teklad Global 19% Protein Extruded Diet (T.2019S.12) from Envigo RMS SARL and had access to sterile filtered and acidified (pH 2.5) tap water which was changed twice weekly. Feed and water were provided ad libitum. […] Animals were routinely monitored twice daily on working days and daily on Saturdays and Sundays. Starting on day 0, animals were weighed twice a week. Relative body weights (RBW) of individual animals were calculated by dividing the individual absolute body weight on day X (BWx) by the individual body weight on the day of randomization multiplied by 100%. […] Tumor volumes were calculated according to the following equation: […]
Statistical analysis was only carried out if at least 50% of the initially randomized animals in a relevant group were still alive. Comparisons between test groups were carried out for the same days. By convention, p-values ≤0.05 indicate significance of tumor inhibition. Statistical calculations were performed using GraphPad Prism bioanalytic software (San Diego Calif. USA, www.graphpad.com).
The evaluation of auristatin E and the albumin-binding auristatin E derivative AE-Keto-Sulf07 in a human non-small cell lung cancer model LXFA737 was carried out as described in the general procedure for patient-derived xenograft models.
Sample preparation: 51 mg weighed in a 100 mL vial dissolved in 36.5 mL 50/50 tert-butanol/10 mM sodium citrate buffer, 3% 2-HPßCD—pH 6.2; 2.4 mL were aliquoted in 4 mL vials.

T1 sequence (P02770 25-608): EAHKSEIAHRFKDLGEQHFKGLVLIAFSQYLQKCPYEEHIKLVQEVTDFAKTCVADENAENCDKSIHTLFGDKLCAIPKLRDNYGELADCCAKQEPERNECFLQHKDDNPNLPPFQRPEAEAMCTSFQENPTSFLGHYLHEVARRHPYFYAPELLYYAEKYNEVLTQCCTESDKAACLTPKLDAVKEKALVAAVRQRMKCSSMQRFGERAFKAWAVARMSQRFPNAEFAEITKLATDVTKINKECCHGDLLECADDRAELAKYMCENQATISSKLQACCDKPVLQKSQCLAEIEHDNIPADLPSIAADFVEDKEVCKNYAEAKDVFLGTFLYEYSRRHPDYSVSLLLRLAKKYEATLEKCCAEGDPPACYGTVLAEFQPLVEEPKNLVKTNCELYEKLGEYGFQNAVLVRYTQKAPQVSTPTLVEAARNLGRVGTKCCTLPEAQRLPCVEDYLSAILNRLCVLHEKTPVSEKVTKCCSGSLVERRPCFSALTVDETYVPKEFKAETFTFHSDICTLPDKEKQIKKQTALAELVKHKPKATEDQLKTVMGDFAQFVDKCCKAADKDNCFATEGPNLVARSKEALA
T2 sequence (P02768 25-609): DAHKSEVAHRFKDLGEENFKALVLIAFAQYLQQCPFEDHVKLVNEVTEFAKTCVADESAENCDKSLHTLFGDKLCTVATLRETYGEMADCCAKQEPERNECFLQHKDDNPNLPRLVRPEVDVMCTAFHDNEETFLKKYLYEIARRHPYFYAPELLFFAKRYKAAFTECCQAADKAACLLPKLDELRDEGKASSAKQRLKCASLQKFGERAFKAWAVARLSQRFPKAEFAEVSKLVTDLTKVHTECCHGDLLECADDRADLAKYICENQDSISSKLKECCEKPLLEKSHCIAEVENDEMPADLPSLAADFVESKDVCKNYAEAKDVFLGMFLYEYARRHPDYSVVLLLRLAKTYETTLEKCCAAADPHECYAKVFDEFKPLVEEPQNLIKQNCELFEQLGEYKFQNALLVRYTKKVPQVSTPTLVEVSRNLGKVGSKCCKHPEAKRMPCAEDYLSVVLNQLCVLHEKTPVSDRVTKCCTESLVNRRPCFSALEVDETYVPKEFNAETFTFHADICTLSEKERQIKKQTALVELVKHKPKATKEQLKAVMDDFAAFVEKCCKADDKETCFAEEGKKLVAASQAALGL

As for “2-(2-(1-(4-(((1S,2R)-2-((2R,3R)-3-((S)-1-((3R,4R,5S)-4-((S)-2-((R)-2-(dimethylamino)-3-methylbutanamido)-N,3-dimethylbutanamido)-3-methoxy-5-methylheptanoyl)pyrrolidin-2-yl)-3-methoxy-2-methylpropanamido)-1-phenylpropoxy)carbonyl)phenyl)ethylidene)hydrazine-1-carbonyl)-5-(6-(2,5-dioxo-2,5-dihydro-1H-pyrrol-1-yl)hexanamido)benzenesulfonic acid [AE-Ester-Sulf07]”, the “albumin binding in plasma” value in data set [1], in data set [2] and in data set [4] was “very rapid” throughout. Besides, the “stability under accelerated degradation conditions (maleimide hydrolysis)” value in data set [3] is reported as “more stable than the respective EMCH derivatives”. Also, in data set [5], the “stability of the reconstituted drug (maleimide hydrolysis and loss of API)” value is reported as “more stable than AE-Ester-EMCH”. Further, the maleimide hydrolyzed in data set [5] stood at 2.5%.

On to `CC[C@H](C)[C@@H]([C@@H](CC(=O)N1CCC[C@H]1[C@H](OC)[C@@H](C)C(=O)N[C@H](C)C(=NNC(=O)c1ccc(NC(=O)CCCCCN2C(=O)C=CC2=O)cc1S(=O)(=O)O)c1ccccc1)OC)N(C)C(=O)[C@@H](NC(=O)[C@H](C(C)C)N(C)C)C(C)C` [AE-Keto-Sulf07, 2-(2-((R)-2-((2R,3R)-3-((S)-1-((3R,4S,5S)-4-((S)-2-((S)-2-(dimethylamino)-3-methylbutanamido)-N,3-dimethylbutanamido)-3-methoxy-5-methylheptanoyl)pyrrolidin-2-yl)-3-methoxy-2-methylpropanamido)-1-phenylpropylidene)hydrazine-1-carbonyl)-5-(6-(2,5-dioxo-2,5-dihydro-1H-pyrrol-1-yl)hexanamido)benzenesulfonic acid], for which the “albumin binding in plasma” value in data set [1], in data set [2] and in data set [4] was “very rapid” each time. The side effects result in data set [6] (4.5 mg/kg 8 times twice weekly) was “No side effects were registered”. For the same molecule, the tumor response result in data set [6] (4.5 mg/kg 8 times twice weekly, day 15 until end of study on day 59) is on record as “partial tumor remission”. Besides, the “p, antitumor efficacy versus auristatin E” value in data set [6] (4.5 mg/kg versus auristatin E 0.3 mg/kg, 8 times twice weekly, day 28) was < 0.01. Further, the “stability under accelerated degradation conditions (maleimide hydrolysis)” value in data set [3] was “more stable than the respective EMCH derivatives”. In addition, the “stability of the reconstituted drug (maleimide hydrolysis and loss of API)” value in data set [5] is listed as “more stable than AE-Keto-EMCH”. Also, the maleimide hydrolyzed in data set [5] came to 2.2%.

Consider `CC[C@H](C)[C@@H]([C@@H](CC(=O)N1CCC[C@H]1[C@H](OC)[C@@H](C)C(=O)N[C@H](C)[C@@H](O)c1ccccc1)OC)N(C)C(=O)[C@@H](NC(=O)[C@H](C(C)C)N(C)C)C(C)C` [auristatin E], for which, in data set [6] (0.3 mg/kg 8 times twice weekly), the antitumor activity entry is reported as “did not show any activity”.
